Source: US10278942B2 (PELOTON THERAPEUTICS, INC., priority 2015, dated 2019)

What was measured:
[1] = system: 786-O-Hif-Luc cells; assay: Luciferase Assay (HIF responsive elements reporter); settings: read-out: Mean Luciferase EC50 (nM), 786-O-Hif-Luc cells
Procedure: A pool of infected cells were then selected against 2 μg/mL of puromycin (P8833, Sigma) for 10 days followed by limited dilution to select single clones. […] Each concentration was tested in triplicate. After about 24 hours, luciferase activity was determined using ONE-Glo Luciferase Assay Reagent (E6110, Promega) following the manufacturer's recommended procedure. EC50 were calculated using Dotmatics software.

[2] = target: T1, HIF-2α HIS TAG-PASB Domain (Homo sapiens, UniProt Q99814); assay: HIF-2α Scintillation Proximity Assay (SPA); type: binding; settings: read-out: Scintillation Proximity Assay IC50
T1 construct: 100 nM HIF-2α HIS TAG-PASB Domain
T1 sequence (Q99814 240-350 limits assumed): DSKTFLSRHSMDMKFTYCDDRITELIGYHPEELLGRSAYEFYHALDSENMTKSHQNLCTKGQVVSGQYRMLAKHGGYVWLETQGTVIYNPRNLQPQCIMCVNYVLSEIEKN
In short: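 IC50 values rest on percent inhibition, where the sample signal is scaled between high and low controls. Wells contain about 100 μL: compound dispensed as 2 μL of DMSO solution, 88 μL protein-probe mix and 10 μL of beads.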

SMILES | EC50 [1] [nM] | IC50 [2] [µM]
N#Cc1cccc(Oc2ccc3c(c2Br)[C@@H](O)C(F)(F)S3(=O)=O)c1 [Compound 430] | < 50 | < 0.05
N#Cc1cncc(-c2ccc(S(=O)(=O)C(F)(F)F)c3c2CC(F)(F)[C@H]3O)c1 [Compound 570] | > 1000 | > 1
N#Cc1cc(F)cc(Oc2ccc(S(=O)(=O)C(F)F)cc2C#N)c1 [Compound 134] | > 1000 | 0.25 to 1
CS(=O)(=O)c1ccc(O[C@H]2C[C@](C)(C#N)C2)c2c1[C@H](O)C(F)(F)[C@@H]2F [Compound 767] | > 1000 | > 1
O[C@@H]1CCc2c(Oc3cc(F)cc(F)c3)ccc(C(F)(F)F)c21 [Compound 58] | 50 to 249 | < 0.05
O=S(=O)(CF)c1ccc(Oc2cc(F)cc(Cl)c2)c2c1[C@H](O)C(F)(F)C2 [Compound 65] | < 50 | < 0.05
C#Cc1c(Oc2cc(F)cc(C#N)c2)ccc2c1C(O)C(F)(F)S2(=O)=O (stereo not shown) [Compound 409] | 50 to 249 | 0.05 to 0.249
CS(=O)(=O)c1ccc(OC[C@H]2C[C@@H]2C#N)c2c1[C@H](O)C(F)(F)[C@@H]2F [Compound 770] | > 1000 | 0.25 to 1
O=S(=O)(c1ccc(OC2CC3(COC3)C2)c2c1[C@H](O)C(F)(F)C2)C(F)(F)F [Compound 718] | 250 to 1000 | 0.05 to 0.249
CC1(C)CC[C@@H](O)[C@@H](c2ccc(S(=O)(=O)C(F)(F)F)c3c2CC(F)(F)[C@H]3O)C1 [Compound 545] | > 1000 | 0.05 to 0.249
O[C@H]1c2c(C(F)(F)F)ccc(OCC(F)F)c2C[C@@H]1F [Compound 697] | 50 to 249 | 0.05 to 0.249
N#Cc1c(Oc2cc(F)cc(Cl)c2)ccc(S(=O)(=O)C(F)F)c1CO [Compound 35] | > 1000 | > 1
O=S(=O)(c1ccc(OC2CCCCC2)c2c1C(O)CC2)C(F)(F)F (stereo not shown) [Compound 616] | 250 to 1000 | 0.05 to 0.249
CS(=O)(=O)c1ccc(Oc2cc(F)cc(F)c2)c(C(F)F)c1C#N [Compound 93] | 250 to 1000 | 0.05 to 0.249
O=C1c2c(S(=O)(=O)C(F)F)ccc(Oc3cncc(Cl)c3)c2CC1(F)F [Compound 182] | > 1000 | 0.25 to 1
O=S(=O)(c1ccc(OCc2ccccc2)c2c1[C@H](O)C(F)(F)C2)C(F)F [Compound 780] | > 1000 | > 1
N#CN=S(=O)(CF)c1ccc(Oc2cc(F)cc(C#N)c2)c2c1[C@H](O)[C@H](F)C2 (stereo partly shown) [Compound 276] | 50 to 249 | 0.05 to 0.249
N#Cc1cc(F)cc(Oc2ccc3c(c2C(F)F)C(O)CS3(=O)=O)c1 (stereo not shown) [Compound 374] | > 1000 | 0.25 to 1
CS(=N)(=O)c1ccc(Oc2cc(F)cc(F)c2)c2c1C(O)CC2 (stereo not shown) [Compound 190] | > 1000 | 0.25 to 1
O=S(=O)(c1ccc(C2=CC(O)CCC2)c2c1[C@H](O)C(F)(F)C2)C(F)(F)F (stereo partly drawn) [Compound 481, (1S)-2,2-difluoro-4-(3-hydroxycyclohex-1-en-1-yl)-7-((trifluoromethyl)sulfonyl)-2,3-dihydro-1H-inden-1-ol] | > 1000 | 0.25 to 1
N#Cc1cc(F)cc(Oc2ccc(S(=O)(=O)C(F)(F)F)c3c2CC(F)(F)[C@H]3NCCO)c1 [Compound 291] | > 1000 | > 1

SMILES | EC50 [1] [nM] | IC50 [2] [µM]
CS(=O)(=O)c1ccc(Oc2cc(F)cc(Cl)c2)c2c1C(O)CC2 (stereo not shown) [Compound 90] | 250 to 1000 | 0.05 to 0.249
O=S(=O)(CF)c1ccc(Oc2cncc(Cl)c2)c2c1[C@H](O)C(F)(F)C2 [Compound 187] | 50 to 249 | 0.05 to 0.249
O=S1(=O)CC(O)c2c1ccc(Oc1cc(F)cc(F)c1)c2C(F)F (stereo not shown) [Compound 370] | 250 to 1000 | 0.05 to 0.249
O=S(=O)(c1ccc(O[C@H]2CCCOC2)c2c1[C@H](O)C(F)(F)C2)C(F)(F)F [Compound 731] | 50 to 249 | < 0.05
O=S(=O)(c1ccc(OCCCO)c2c1C(O)C(F)(F)C2)C(F)(F)F (stereo not shown) [Compound 612] | > 1000 | 0.25 to 1
N#Cc1cc(F)cc(Oc2ccc(S(=N)(=O)C(F)(F)F)c3c2CCC3O)c1 (stereo not shown) [Compound 258] | > 1000 | 0.25 to 1
COCC(C)Oc1ccc(S(=O)(=O)C(F)(F)F)c2c1CC(F)(F)C2O (stereo not shown) [Compound 594] | 50 to 249 | < 0.05
N#CC1(COc2ccc(S(=O)(=O)C(F)(F)F)c3c2CCC3O)CC1 (stereo not shown) [Compound 619] | > 1000 | > 1
CC(=O)N[C@H]1C[C@@H](Oc2ccc(S(=O)(=O)C(F)(F)F)c3c2CC(F)(F)[C@H]3O)C1 [Compound 725] | > 1000 | > 1
CS(=O)(=O)c1ccc(OC[C@H]2C[C@H]2C#N)c2c1[C@H](O)C(F)(F)[C@@H]2F [Compound 765] | > 1000 | 0.25 to 1
CS(=O)(=O)c1ccc(Oc2cc(F)cc(C#N)c2)c2c1[C@H](O)C(F)(F)[C@@H]2O [Compound 312] | 250 to 1000 | 0.05 to 0.249
O=S(=O)(c1ccc(Oc2cc(F)cc(Cl)c2)c(Br)c1CNCc1ccccc1)C(F)(F)F [Compound 110] | > 1000 | > 1
OC1c2c(I)ccc(OCC(F)F)c2CC1(F)F (stereo not shown) [Compound 681] | 50 to 249 | 0.05 to 0.249
CC(Oc1ccc(S(=O)(=O)C(F)(F)F)c2c1CC(F)(F)[C@H]2O)C1(C#N)CC1 (stereo partly shown) [Compound 748] | 250 to 1000 | 0.25 to 1
O=S(=O)(c1ccc(CC2CCCCC2)c2c1C(O)C(F)(F)C2)C(F)(F)F (stereo not shown) [Compound 509] | > 1000 | < 0.05
O=Cc1c(S(=O)(=O)C(F)(F)F)ccc(Oc2cc(F)cc(Cl)c2)c1Cl [Compound 112] | 250 to 1000 | < 0.05
CC1CC(Oc2ccc(S(=O)(=O)C(F)(F)F)c3c2CC(F)(F)C3O)CCO1 (stereo not shown) [Compound 623] | 50 to 249 | < 0.05
O=S(=O)(c1ccc(-c2ccccc2Cl)c2c1[C@H](O)C(F)(F)C2)C(F)(F)F [Compound 565] | > 1000 | > 1
CCCc1ccc(S(=O)(=O)C(F)(F)F)c2c1CC(F)(F)C2O (stereo not shown) [Compound 517] | 250 to 1000 | 0.05 to 0.249
NC1CS(=O)(=O)c2ccc(Oc3cc(F)cc(Cl)c3)c(C(F)F)c21 (stereo not shown) [Compound 363] | > 1000 | > 1
O=S(=O)(c1ccc(Oc2cc(Cl)cc(Cl)c2)c(Br)c1)C(F)(F)F [Compound 172] | > 1000 | 0.25 to 1

SMILES | EC50 [1] [nM] | IC50 [2] [µM]
O=S(=O)(c1ccc(Oc2cccc3[nH]ncc23)c2c1C(O)C(F)(F)C2)C(F)(F)F (stereo not shown) [Compound 243] | 250 to 1000 | 0.25 to 1
N#CC1(COc2ccc(S(=O)(=O)C(F)(F)F)c3c2CC(F)(F)[C@H]3O)CCC1 [Compound 790] | < 50 | < 0.05
Cc1c(S(=O)(=O)C(F)F)ccc(Oc2cc(F)cc(Cl)c2)c1C#N [Compound 32] | > 1000 | < 0.05
CS(=O)(=O)c1ccc(OCC(F)F)c2c1[C@H](O)C(F)(F)[C@@H]2F [Compound 755] | > 1000 | 0.05 to 0.249
O=S(=O)(c1ccc(CCO)c2c1[C@H](O)C(F)(F)C2)C(F)(F)F [Compound 496, (S)-2,2-difluoro-4-(2-hydroxyethyl)-7-((trifluoromethyl)sulfonyl)-2,3-dihydro-1H-inden-1-ol] | > 1000 | 0.25 to 1
CS(=O)(=O)c1ccc(O[C@H]2C[C@H](F)C2)c2c1[C@H](O)C(F)(F)[C@H]2F [Compound 737] | > 1000 | 0.05 to 0.249
O=S(=O)(c1ccc(Oc2cccc3[nH]ncc23)c2c1[C@H](O)C(F)(F)C2)C(F)(F)F [Compound 263] | 250 to 1000 | < 0.05
O=S(=O)(c1ccc(O[C@H]2C[C@H](O)C2)c2c1C(O)C(F)(F)C2)C(F)(F)F (stereo partly shown) [Compound 644] | 250 to 1000 | 0.25 to 1
O=S(=O)(c1ccc([C@@H]2CCC[C@H](O)C2)c2c1[C@H](O)C(F)(F)C2)C(F)(F)F [Compound 482, (S)-2,2-difluoro-4-((1R,3S)-3-hydroxycyclohexyl)-7-((trifluoromethyl)sulfonyl)-2,3-dihydro-1H-inden-1-ol] | 250 to 1000 | 0.25 to 1
COCCOc1ccc(S(=O)(=O)C(F)(F)F)c2c1CC(F)(F)C2O (stereo not shown) [Compound 595] | 250 to 1000 | 0.25 to 1
COC(=O)COc1ccc(S(=O)(=O)C(F)(F)F)c2c1CC(F)(F)C2O (stereo not shown) [Compound 639] | > 1000 | > 1
CS(=O)(=O)c1ccc(OC[C@@H]2CC2(F)F)c2c1[C@H](O)C(F)(F)[C@@H]2F [Compound 768] | 250 to 1000 | 0.05 to 0.249
CS(=O)(=O)c1ccc(OC2CC(F)(F)C2)c2c1[C@H](O)[C@H](F)C2 [Compound 585] | 250 to 1000 | < 0.05
CC(C)(C#N)COc1ccc(S(C)(=O)=O)c2c1[C@@H](F)C(F)(F)[C@H]2O [Compound 752] | > 1000 | > 1
Cc1cncc(Oc2ccc(S(C)(=O)=O)c3c2CC(F)(F)[C@H]3O)n1 [Compound 201] | > 1000 | < 0.05
CS(=O)(=O)c1ccc(OCC(F)(F)F)c2c1[C@H](O)C(F)(F)[C@@H]2F [Compound 751] | > 1000 | 0.05 to 0.249
CCOc1ccc(S(=O)(=O)C(F)F)c2c1CC(F)(F)[C@H]2O [Compound 678] | 250 to 1000 | 0.25 to 1
C[C@@H]1Cc2c(Oc3cc(F)cc(C#N)c3)ccc(S(C)(=O)=O)c2[C@@H]1O [Compound 301] | > 1000 | > 1
O=S(=O)(CF)c1ccc(Oc2cccc3sccc23)c2c1C(O)C(F)(F)C2 (stereo not shown) [Compound 242] | 250 to 1000 | 0.05 to 0.249
CS(=O)(=O)c1ccc(O[C@H]2C[C@@](F)(C#N)C2)c2c1[C@H](O)C(F)(F)[C@@H]2F [Compound 739] | > 1000 | < 0.05
